Assay results as given in patent US20050148553A1, “Use of tigecycline, alone, or in combination with rifampin to treat osteomyelitis and/or septic arthritis” (priority 2003, published 2005).
Values after ≈ are worked out from the molar mass of the structure shown. Values joined by “and” are separate entries in the source; they are usually repeats but may differ in a detail not shown here. Equal values may be shown once.

Tests used:
[1] = Adverse events and weight variance in infected treated rabbits
Source text: All rabbits were monitored weekly for weight variance. […] The key for FIGS. 4A and B is as follows: Control=control group, no treatment; Vancomycin=subcutaneous vancomycin treated group; Vanco+Rifampin=subcutaneous vancomycin with oral rifampin treated group; Gar-936=subcutaneous Gar-936 treated group; Gar-936+Rifampin=subcutaneous Gar-936 with oral Rifampin treated group.

[2] = Tigecycline in human serum, tissue and synovial fluid after one intravenous 100 mg dose (LC/MS/MS); format: in vivo; set-up: Calculated Concentration, serum: unit not given here
Protocol: The objective of this study was to determine the tissue and corresponding serum concentration of tigecycline at selected time points in lung, colon, gallbladder tissues, bone, and synovial fluid. Samples were taken from subjects scheduled for lung, colon, gallbladder, or bone surgery, or a lumbar puncture who were given a single dose of tigecycline administered intravenously.
Pre-specified tissue/fluid sampling of either lung, colon, gallbladder, bone, and synovial fluid was performed on each subject during surgery at 4 hours, 8 hours, 12 hours, or 24 hours after the start of a single dose of 100 mg tigecycline administered over 30 minutes. Serum was collected from all subjects at hour 0 (before the first dose), approximately 30 minutes (end of infusion), and at the time corresponding to tissue/fluid collections. Tissue and serum concentration was determined according to the method set forth below.
Samples of human serum and tissue from study subjects who had received tigecycline were analyzed according to methods that had been previously validated. Serum samples and synovial fluid (0.2 ml) were mixed with 0.6 ml internal standard in acetonitrile, the supernatant evaporated to dryness and the residue reconstituted in 200 microliters mobile phase. Aliquots (10 microliters) of the reconstituted samples were injected into an LC/MS/MS.
The data was acquired by and analyzed on PE SCIEX “Analyst” version 1.3 software. Linear regression, with 1/x^2 weighting was used to obtain the best fit of the data for the calibration curves. The lower limit of quantitation was 10 ng/ml for serum and synovial fluid samples, 10 ng/g for the colon and gall bladder samples, and 30 ng/g for the bone samples.
Tigecycline was measured in human serum using an LC/MS/MS method. The primary stock solution of tigecycline was prepared at 1 mg/ml by dissolving in methanol. A secondary stock solution was prepared from the primary stock solution by diluting to a concentration of approximately 40,000 ng/ml with acetonitrile. The stock solutions were stored at −20° C. when not in use. A primary internal standard solution of tert-butyl-d9-tigecycline was prepared at a concentration of 1 mg/ml in methanol. A secondary internal standard stock solution was prepared by diluting the primary stock solution to a concentration of 100 micrograms/ml in acetonitrile with 0.1% trifluoroacetate added. The primary and secondary stock solutions were stored at −20° C. The working internal standard was prepared by diluting to volume with acetonitrile/0.1% trifluoroacetate. The working internal standard was stored at 4° C. when not in use. On the day of analysis, the secondary stock solution was brought to room temperature before use to prepared the standard curve working solutions. The standard curve was prepared at approximately 2000, 1600, 1000, 500, 250, 100, 50, 20, and 10 ng/ml by serial dilution in blank human serum.
The extraction procedure was as follows: to 200 microliters of calibrator, quality control or sample was added 600 microliters of internal standard working solution and vortex mixed. The samples were centrifuged for 10 minutes at 13000 rpm to separate the layers and the supernatant was transferred to a culture tube. The samples were evaporated to dryness in a Speed Vac. The residues were reconstituted by sonicating in 200 microliters of mobile phase and 10 microliters was injected in the LC/MS/MS. […]

[3] = system: methicillin-resistant S. aureus; test: microbe, parasite or virus in culture; format: cell-based, Staphylococcus aureus; conditions: Staphylococcus aureus, MRSA
Protocol: The minimum inhibitory concentrations (MIC) of tigecycline, vancomycin and rifampin were determined using an antibiotic two-fold tube-dilution method. The minimum bactericidal concentrations were also determined. The limits of sensitivity of this method were 25 μg/ml to 0.20 μg/ml.

[4] = system: M. abcessus; test: Susceptibility/MIC of patient isolate, compassionate use study; format: cell-based, Mycobacterium abscessus

CN(C)c1cc(NC(=O)CNC(C)(C)C)c(O)c2c1C[C@H]1C[C@H]3[C@H](N(C)C)C(O)=C(C(N)=O)C(=O)[C@@]3(O)C(O)=C1C2=O [Tigecycline]
symptoms of gastric dysfunction ([1]; approximately 1.0-1.5 weeks post-antibiotic initiation): mild to severe symptoms of gastric dysfunction | mean weight gain ([1]; infected rabbits after antibiotic treatment): -0.05 kg | rabbits that died before completion of treatment ([1]; infected rabbits, 4 weeks treatment): 5 | dosage causing relevant morbidity and mortality ([1]; rabbit model, data not shown): higher than 14 mg/kg per day | Calculated Concentration, tissue ([2]; Lung, 4 to 24 hours after dose): 653 n2/2 | concentration at 8 h ([2]; human, synovial fluid, intravenous, 100 mg, synovial fluid, 8 Hour, read-out: Calculated Concentration, synovial fluid): 70.9 ng/mL | concentration at 12 h ([2]; human, synovial fluid, intravenous, 100 mg, synovial fluid, 12 Hour, read-out: Calculated Concentration, synovial fluid): 111 ng/mL | Calculated Concentration, serum ([2]; serum, 8 Hour): 198 {n&mll and 186 {n&mll and 133 {n&mll and 206 {n&mll | Calculated Concentration, synovial fluid ([2]; synovial fluid, 12 Hour): 65.0 ng/mL and 65.7 ng/mL and 62.8 ng/mL | MBC ([3]; read-out: minimum bactericidal concentration (MBC)): 0.2 µg/mL (≈ 0.341 µM) | MIC ([3]; read-out: minimum inhibitory concentration (MIC), MRSA study strain, inoculum 10^6 CFU/ml): < 0.2 µg/mL | susceptibility of the organism ([4]; M. abscessus patient isolate): susceptible | MIC ([4]; Mycobacteroides abscessus, M. abcessus from a human patient, read-out: minimum inhibitory concentration): 0.25 µg/mL
